Experimental data: patent US4318898A, “Technetium-99m-labelled (2,4,5-trimethylacetanilido)-iminodiacetate for liver function diagnosis, chloroacetric acid (2,4,5-trimethylanilide), (2,4,5-trimethylacetanilido)-iminodiacetate, and process for their preparation” (Hoechst Aktiengesellschaft, priority 1978, dated 1982)

How the values were obtained:
[1] = Distribution of radioactivity in the organs of rats after injection into the thigh vein; assay type: in vivo, rat; conditions: for radioactivity in intestines / radioactivity in kidneys / radioactivity in liver: rat, 30 μCi, thigh vein
Experimental: 2. 30 μCi each of the labelled diagnostic agent are administered to groups of 12 rats each by injection into the thigh vein. Subsequently, 3 animals each are killed after 5, 10, 20 and 30 minutes, and the distribution of radioactivity in the organs is determined.
After stirring for 5 minutes, the pH is adjusted to 6 by means of hydrochloric acid, the batch is brought to 233 ml, divided into 1 ml portions in beaded rim vials, and frozen with liquid nitrogen. Subsequently, the product is lyophilized, the vials are filled with nitrogen and closed. After a storage time of 60 days, 0.3 mCi to Tc-99m pertechnetate in 10 ml of physiological saline solution is injected into the closed vials. After a reaction time of 20 minutes, 0.5 ml each of the diagnostic agent so obtained is administered intravenously to rats (typical test results are indicated in Table 2).

[2] = Gamma-camera observation of activity distribution over time in rabbit after injection into the ear vein; assay type: in vivo; conditions: for livermax (time of maximal liver activity after the injection) / livermax/2 (half-life of the activity in the liver, outside of the gallbladder): rabbit, 0.5 mCi, ear vein, Tc-99m labelled
Experimental: (1) 0.5 mCi of the labelled diagnostic agent ia administered to a rabbit by injection into the ear vein, and the distribution of the activity is observed during the passage of time by means of a gamma-camera connected with a data processing system. The progress of the activity in defined organs is thus observed. The following parameters are determined:
1. livermax =time of maximal liver activity after the injection
2. livermax/2 =half-life of the activity in the liver (outside of the gallbladder).
1.8 g (2,4,5-trimethylacetanilido)-iminodiacetic acid is dissolved in 20 ml of 0.5 N sodium hydroxide solution and 36 mg of SnCl2.2H2 O (dissolved in 6 ml of 0.1 N hydrochloric acid) are added. The batch is stirred for 5 minutes, the pH is adjusted to 6 by means of hydrochloric acid, the batch is brought to 60 ml and divided into 1 ml portions. 10 mCi of Tc-99m pertechnetate in 4 ml of physiological saline solution are added to such a portion. […] All operations were carried out under a protective N2 gas atmosphere.

mice = experiment: Toxicity (dosis tolerata maxima, LD50) in mice; assay type: in vivo
rats = experiment: Toxicity (dosis tolerata maxima, LD50) in rats; assay type: in vivo
[3] = compared to the hitherto known products

| radioactivity in intestines ([1]; 5 minutes) | radioactivity in kidneys ([1]; 5 minutes) | radioactivity in liver ([1]; 5 minutes) | radioactivity in intestines ([1]; 10 minutes) | radioactivity in kidneys ([1]; 10 minutes) | radioactivity in liver ([1]; 10 minutes) | radioactivity in intestines ([1]; 20 minutes) | radioactivity in kidneys ([1]; 20 minutes) | radioactivity in liver ([1]; 20 minutes) | radioactivity in intestines ([1]; 30 minutes) | radioactivity in kidneys ([1]; 30 minutes) | radioactivity in liver ([1]; 30 minutes) | livermax (time of maximal liver activity after the injection) [2] | livermax/2 (half-life of the activity in the liver, outside of the gallbladder) [2] | Molecule | activity concentration in the kidney [1, 3] | passage through the liver [2, 3] | LD50 (mice) | dosis tolerata maxima (mice) | LD50 (rats) | dosis tolerata maxima (rats) |
| --- | --- | --- | --- | --- | --- | --- | --- | --- | --- | --- | --- | --- | --- | --- | --- | --- | --- | --- | --- | --- |
| 71.2% | 4.3% | 6.9% | 79.9% | 4.2% | 3.4% | 81.7% | 3.6% | 1.6% | 81.8% | 3.4% | 1.5% | 6.8 min | 15.7 min | ^99m Tc-(2,6-diethylacetanilido)-iminodiacetate [EHIDA] |  |  |  |  |  |  |
| 43.2% | 7.4% | 21.7% | 65.9% | 7.4% | 9.6% | 80.8% | 5.8% | 2.2% | 79.7% | 4.9% | 1.0% | 5.7 min | 8.2 min | ^99m Tc-(2,6-dimethylacetanilido)-iminodiacetate [HIDA] |  |  |  |  |  |  |

The next lines start with the molecule.

| Molecule | radioactivity in intestines ([1]; 5 minutes) | radioactivity in kidneys ([1]; 5 minutes) | radioactivity in liver ([1]; 5 minutes) | radioactivity in intestines ([1]; 10 minutes) | radioactivity in kidneys ([1]; 10 minutes) | radioactivity in liver ([1]; 10 minutes) | radioactivity in intestines ([1]; 20 minutes) | radioactivity in kidneys ([1]; 20 minutes) | radioactivity in liver ([1]; 20 minutes) | radioactivity in intestines ([1]; 30 minutes) | radioactivity in kidneys ([1]; 30 minutes) | radioactivity in liver ([1]; 30 minutes) | livermax (time of maximal liver activity after the injection) [2] | livermax/2 (half-life of the activity in the liver, outside of the gallbladder) [2] | activity concentration in the kidney [1, 3] | passage through the liver [2, 3] | LD50 (mice) | dosis tolerata maxima (mice) | LD50 (rats) | dosis tolerata maxima (rats) |
| --- | --- | --- | --- | --- | --- | --- | --- | --- | --- | --- | --- | --- | --- | --- | --- | --- | --- | --- | --- | --- |
| Cc1cc(C)c(NC(=O)CN(CC(=O)O)CC(=O)O)c(C)c1 [2,4,6-trimethyl-, (2,4,6-trimethylacetanilido)iminodiacetate] | 57.0% | 3.6% | 23.5% | 66.0% | 3.8% | 12.1% | 79.2% | 3.8% | 2.9% | 81.0% | 3.3% | 1.6% | 4.2 min | 10.0 min |  |  |  |  |  |  |
| CC(C)c1cccc(C(C)C)c1NC(=O)CN(CC(=O)O)CC(=O)O [2,6-diisopropyl-, (2,6-diisopropylacetanilido)-iminodiacetate] | 60.9% | 4.4% | 10.0% | 65.3% | 4.4% | 7.0% | 71.9% | 4.4% | 4.4% | 72.2% | 3.8% | 4.4% | 4.6 min | 15.3 min |  |  |  |  |  |  |
| Cc1cc(C)c(NC(=O)CN(CC(=O)O)CC(=O)O)cc1C [TMIDA, (2,4,5-trimethylacetanilido)-iminodiacetate] | 56.8% | 3.3% | 19.1% | 68.8% | 3.1% | 9.6% | 81.1% | 2.5% | 2.4% | 82.0% | 2.1% | 1.2% | 2.6 min | 7.7 min | decreased activity concentration in the kidney | more rapid passage through the liver | 246 mg per kg of test animal | 189 mg/kg of body weight | 255 mg per kg of test animal | 189 mg/kg of body weight |
